Source: US6416987B1, “Mutants of thymidylate synthase and uses thereof” (Sloan Kettering Institute for Cancer Research, priority 1997, dated 2002)
Where two headings read alike, the source gives them in different places. Each block holds one compound with its values, some of them ahead of it.

Columns and labels:
[1] = in vivo; cited from earlier work
[2] = cited from earlier work
HT1080 cells = assay: EMS sensitivity of HT1080 cells (colony formation); type: cell-based; conditions: Homo sapiens, HT-1080; 400 μg/ml EMS, 18 hr exposure
Experimental: HT1080 cells were seeded into 6-well plates (100-300 cells/well). After overnight incubation to allow cell attachment, The cells were exposed with EMS for 18 hours, washed three times, and then incubated with EMS-free medium for a further 14 days. The range of EMS concentration tested was 100 to 1000 μg of EMS/ml of culture medium. Colonies formed (50 cells) were stained with crystal violet and counted. The concentration of EMS used for the random mutagenesis experiments was determined based on the number of colonies obtained in the EMS-treated test versus EMS concentrations (Sega, 1984; Fanin et al., 1993).

[3] = test system: human colon tumor cell line with Tyr33 to His33 TS; conditions: cited from earlier work
[4] = test system: TS-negative FSthy21 cells transfected with L221A mutant human TS cDNA; type: cell-based, mouse; conditions: FdUrd; L221A/clone (2) vs wild-type clone (1)
[5] = test system: TS-negative FSthy21 cells transfected with I108F mutant human TS cDNA; type: cell-based, mouse; conditions: FdUrd; 1108F/clone (2) vs wild-type clone (1)
[6] = test system: TS-negative FSthy21 cells transfected with K47E mutant human TS cDNA; type: cell-based, mouse; conditions: FdUrd; K47E/clone (2) vs wild-type clone (1)
[7] = test system: TS-negative FSthy21 cells transfected with D49G mutant human TS cDNA; type: cell-based, mouse
[8] = test system: TS-negative FSthy21 cells transfected with F225L mutant human TS cDNA; type: cell-based, mouse; conditions: FdUrd; F225L/clone (3) vs wild-type clone (1)
[9] = test system: TS-negative FSthy21 cells transfected with L221I mutant human TS cDNA; type: cell-based, mouse; conditions: FdUrd; L221I/clone (1) vs wild-type clone (1)
[10] = molecular target: TS-negative FSthy21 cells transfected with I108A mutant human TS cDNA (Homo sapiens, UniProt P04818, P2L/I108A, cells depend on it); assay: Growth inhibition assay (alamar Blue), I108A transfectants; conditions: read-out: IC50 values, FdUrd, 7-day exposure
Sequence of TS-negative FSthy21 cells transfected with I108A mutant human TS cDNA (Homo sapiens, UniProt P04818, P2L/I108A, cells depend on it) (P04818 whole entry P2L/I108A): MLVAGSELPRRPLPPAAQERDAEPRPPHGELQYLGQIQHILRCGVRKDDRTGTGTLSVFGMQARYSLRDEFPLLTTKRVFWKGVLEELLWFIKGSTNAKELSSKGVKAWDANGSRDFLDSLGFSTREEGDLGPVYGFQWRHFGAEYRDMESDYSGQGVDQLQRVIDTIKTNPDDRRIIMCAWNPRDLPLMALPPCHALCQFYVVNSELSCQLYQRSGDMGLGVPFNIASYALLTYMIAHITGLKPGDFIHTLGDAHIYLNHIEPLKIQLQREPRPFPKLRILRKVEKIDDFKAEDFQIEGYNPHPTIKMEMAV
Experimental: (§1) The mouse TS-negative FSthy21 cells were used as the host for DNA transfections. This cell line, which is a TS-deficient derivative of mouse FM3A cells, was routinely maintained in MEM medium supplemented with 10% fetal bovine serum and 10×10^−5 M thymidine. Transfections were performed by DOTAP, using 10 μg of DNA/culture. Four days after transfection, cells were placed in selective medium, which contain no thymidine and reduced folate. Colonies having the ability to grow in the absence of thymidine were pooled and propagated as a mass culture.
(§2) Logarithmically growing suspension mouse TS-20 negative FSthy21 cells transfected with wild-type or variant human TS cDNA were seeded in 96-well plates at 1,000 cells/well in 180 μl of complete medium. […] Cell viability was measured by the alamar Blue™ assay. This method incorporates an oxidation-reduction (REDOX) indicator that both fluoresces and changes color in response to chemical reduction of growth medium resulting from cell growth. To above 96-well cultured cells, 25 μl of Alamar Blue (Alamar, Sacramento, Calif.) (10% of incubation volume) were added according to the manufacturer's instructions. The culture 96-well plates were then incubated at 37° C. for 4 hours. Viable cells induce chemical reduction of the media which results in a change in REDOX color from blue to red. The intensity of red color (and fluoresces) is proportional to the viable cells. After incubation, fluorescence is was read at 530-560 nm excitation wavelength and 590 nm emission wavelength by an automated plate reader (model EL340; Bio-Tek). Drug concentrations needed to reduce cell growth by 50% (IC50 values) were determined graphically by plotting of cell growth verses inhibitor concentration.
(§3) The effect of three antifolates and FdUrd on the growth characteristics of transfectants that stably express various TS proteins was evaluated by cytotoxicity studies. Cell growth was measured by the alamar blue assay. IC50 values were calculated as the concentration of inhibitor required to inhibit growth by 50% compared to wild-type transfected cells grown under identical conditions.

[11] = test system: TS-negative FSthy21 cells transfected with I108A mutant human TS cDNA; assay: as above; conditions: for Ratio of IC50 values for mutant/wt cells: FdUrd
Experimental: as §1, §2, §3

[12] = test system: TS-negative FSthy21 cells transfected with L221S mutant human TS cDNA; type: cell-based, mouse; conditions: FdUrd; L221S/clone (2) vs wild-type clone (1)
[13] = test system: TS-negative FSthy21 cells transfected with F225W mutant human TS cDNA; type: cell-based, mouse
[14] = test system: TS-negative FSthy21 cells transfected with F225Y mutant human TS cDNA; type: cell-based, mouse; conditions: FdUrd; F225Y/clone (1) vs wild-type clone (1)
[15] = molecular target: TS-negative FSthy21 cells transfected with wild-type human TS cDNA (Homo sapiens, UniProt P04818, P2L, cells depend on it); assay: Growth inhibition assay (alamar Blue), TS-negative cells transfected with wild-type human TS cDNA; type: cell-based, mouse; conditions: FdUrd, 7-day exposure, read-out: IC50 values
Sequence of TS-negative FSthy21 cells transfected with wild-type human TS cDNA (P04818 whole entry P2L): as the sequence (P04818 whole entry P2L/I108A) above, with A108I counted along it

[16] = test system: TS-negative FSthy21 cells transfected with G52S mutant human TS cDNA; type: cell-based, mouse

SMILES: C#CCN(Cc1ccc2nc(N)[nH]c(=O)c2c1)c1ccc(C(=O)N[C@@H](CCC(=O)O)C(=O)O)cc1 [CB3717, N^10-propargyl-5,8-dideazafolic acid]
- toxicity in Phase I trials [1]: severe renal and hepatic toxicity
- aqueous solubility [2]: poor

SMILES: CCOS(C)(=O)=O [EMS, Ethylmethanesulfonate]
- inhibition at 400 µg/mL (HT1080 cells): 80%

SMILES: O=c1[nH]c(=O)n([C@H]2C[C@H](O)[C@@H](COP(=O)(O)O)O2)cc1F [FdUMP, 5-fluoro-2-deoxyuridylate]
- resistance conferred by Tyr33 to His33 substitution [3]: 3- to 4 fold

- Ratio of IC50 values for mutant/wt cells [4]: 4.0(1)
- Ratio of IC50 values for mutant/wt cells [5]: 6.1(1)
- Ratio of IC50 values for mutant/wt cells [6]: 5.7(1)
- resistance, IC50 values greater than wild-type transfectants ([7]; D49G transfectants vs wild-type transfectants): 26 fold
- Ratio of IC50 values for mutant/wt cells ([7]; FdUrd, D49G/clone (1) vs wild-type clone (1)): 26(1)
- Ratio of IC50 values for mutant/wt cells [8]: 5.7(1)
- Ratio of IC50 values for mutant/wt cells [9]: 13(1)
- GI50 ([10]; 1108A/clone (1) [175-1]): 1.4 ± 0.19 nM
- GI50 ([10]; 1108A/clone (2) [175-2]): 1.05 ± 0.18 nM
- GI50 ([10]; 1108A/clone (3) [175-3]): 1.37 ± 0.25 nM
- Ratio of IC50 values for mutant/wt cells [12]: 1.2(1)
- resistance, IC50 values greater than wild-type transfectants ([13]; F225W transfectants vs wild-type transfectants): 25 fold
- Ratio of IC50 values for mutant/wt cells ([13]; FdUrd, F225W/clone (2) vs wild-type clone (1)): 25(1)
- Ratio of IC50 values for mutant/wt cells [14]: 1.0(1)
- GI50 ([15]; wild-type/clone (1) [161-1]): 0.029 ± 0.0003 nM
- GI50 ([15]; wild-type/clone (2) [161-2]): 0.0896 ± 0.0062 nM
- GI50 ([15]; wild-type/clone (3) [161-3]): 0.0286 ± 0.0002 nM
- Ratio of IC50 values for mutant/wt cells ([16]; FdUrd, G52S/clone (3) vs wild-type clone (1)): 97(1)
- resistance, IC50 values greater than wild-type transfectants ([16]; G52S transfectants vs wild-type transfectants): 97 fold
SMILES: O=c1[nH]c(=O)n([C@H]2C[C@H](O)[C@@H](CO)O2)cc1F [FdUrd, 5-fluoro-2′-deoxyuridine]
- Ratio of IC50 values for mutant/wt cells ([11]; 1108A/clone (1) vs wild-type clone (2)): 16(2)^2
- Ratio of IC50 values for mutant/wt cells ([11]; 1108A/clone (2) vs wild-type clone (2)): 12(2)
- Ratio of IC50 values for mutant/wt cells ([11]; 1108A/clone (3) vs wild-type clone (2)): 15(2)
- resistance, IC50 values greater than wild-type transfectants ([11]; I108A transfectants vs wild-type transfectants): 12 fold
